The nature of test [1]: Drug stabilization effect (photostabilizer, sunlight exposure). Further details: key to Sunlight exposure (80 MJ) Appearance: A: No change; B: No almost change; C: Yes change. The note with it: photostabilizer 0.05, amounts wt %. As to the method: Next, the photo stabilization effect and changes in appearance in drug compositions were studied according to the following evaluation formulation.
Each test sample was prepared. Appearance changes of the samples exposed to sunlight (80 MJ) was observed (visual evaluation). Also, residual yield was measured by liquid chromatography.

Test [2] is described as follows: Colorant stabilization effect (photostabilizer, sunlight exposure). The note with it: photostabilizer 0.05 wt %. Also noted: key to Sunlight exposure (80 MJ) Appearance: A: No change; B: No almost change; C: Yes change; key to Sunlight exposure (80 MJ) ΔE: ΔE color difference (Lab) vs. color before sunlight exposure. As to the method: First of all, the photostabilization effect and appearance change of a composition in each pigment were studied by the following evaluation formulation.
Each test sample was prepared. Observation of appearance change (visual evaluation) and measurement of color difference (ΔE) were carried out in samples exposed to sunlight exposure (around 80 MJ).
Color difference was measured by Lab coordinate system with spectrophotometer. Color difference was calculated on the basis of the color before sunlight exposure. Namely, from measured value (L1,a1,b1) before sunlight exposure, color difference (ΔE) was calculated by following formula.

Test [3] is described as follows: Perfume stabilization effect (photostabilizer, sunlight exposure, judgement by perfumier). Also noted: key to Sunlight exposure (80 MJ) Smell evaluation / Sunlight exposure (80 MJ) evaluation: A: No change; B: No almost change; C: Yes change. As to the method: Next, the photostabilization effect for each perfume was studied by the following evaluation formulation.
Each test sample was prepared. Change of smell of sample exposed to sunlight (80 MJ) was observed (judgement by perfumier).

Test [4] can be described thus: Perfume stabilization effect (sequestering agent combination). Also noted: key to Sunlight exposure (80 MJ) Smell evaluation: A: No change; B: No almost change; C: Yes change. The method, then: Next, for combinations with sequestering agent, photostabilization effect for each perfume was studied by the following evaluation formulation.
Each test sample was prepared. Smell change of samples exposed to sunlight (80 MJ) was observed (judgement by perfumier).

Test [5] in a line: Pigment stabilization effect (sequestering agent combination). To be noted: photostabilizer 0, amounts wt %. Also noted: key to Sunlight exposure (80 MJ) Appearance: A: No change; B: No almost change; C: Yes change; key to Sunlight exposure (80 MJ) ΔE: color difference ΔE in Lab space vs. color before sunlight exposure. As to the method:
First of all, the photostabilization effect and appearance changes of a composition for each pigment were studied by the following evaluation formulation.
Each test sample was prepared. Observation of appearance changes (visual evaluation) and measurement of color difference (ΔE) were carried out for samples exposed to sunlight (around 80 MJ).
Color difference was measured by Lab coordinate system with spectrophotometer. Color difference was calculated based on the color before sunlight exposure. Namely, from the measured value (L1,a1,b1) before sunlight exposure, color difference (ΔE) was calculated by following formula.

Where [6] appears, read: drug 2-o-α-α-glucopyranosyl-L-ascorbic acid 2.0.
[7] abbreviates: drug Dibutylhydroxytoluene 0.01.
Setting [8] is: drug Dipotassium glycyrrhizinate 0.05.
Setting [9] is: drug L-ascorbic acid 2-(dl-α-tocopheryl hydrogen phosphate) potassium salt 0.01.
Where [10] appears, read: Red No. 106 0.00001 wt % + Yellow No. 5 0.0001 wt %.
Setting [11] is: Red No. 106 0.00001 wt % + Yellow No. 203 0.0001 wt %.
Where [12] appears, read: Red No. 213 0.00001 wt % + Blue No. 1 0.00001 wt %.
[13] abbreviates: Red No. 227 0.0001 wt % + Yellow No. 5 0.0001 wt %.
[14] abbreviates: Red No. 227 0.0001 wt % + Yellow No. 203 0.0001 wt %.
The mark [15] stands for this setting: Red No. 401 0.0001 wt % + Blue No. 1 0.00001 wt %.
The mark [16] stands for this setting: Red No. 401 0.0001 wt % + Green No. 3 0.00001 wt %.
Where [17] appears, read: Yellow No. 203 0.0001 wt % + Yellow No. 5 0.0001 wt %.
Setting [18] is: colorant Green No. 3 0.0001, sequestering agent 0.03 alone.
[19] abbreviates: colorant Red No. 106 0.0001, sequestering agent 0.02 alone.
The mark [20] stands for this setting: colorant Red No. 401 0.001, sequestering agent 0.1 alone.
[21] abbreviates: colorant Yellow No. 5 0.001, sequestering agent 0.02 alone.

In the case of `COc1ccc(C(=O)c2ccccc2)c(O)c1` [2-Hydroxy-4-methoxybenzophenone, reference compound], the “Sunlight exposure (80 MJ) Appearance” value in test [1] (setting [6]), in test [1] (setting [7]), in test [1] (setting [8]), in test [1] (setting [9]), in test [1] (drug Salicylic acid 0.1) and in test [2] (Blue No. 1 0.0001 wt %) was “B” each time. In addition, the “Sunlight exposure (80 MJ) Appearance” value in test [2] (Green No. 3 0.0001 wt %), in test [2] (setting [10]), in test [2] (setting [11]), in test [2] (Red No. 106 0.0001 wt %), in test [2] (setting [12]) and in test [2] (Red No. 213 0.0001 wt %) was “B” throughout. Besides, the “Sunlight exposure (80 MJ) Appearance” value in test [2] (setting [13]), in test [2] (setting [14]), in test [2] (Red No. 227 0.0001 wt %), in test [2] (setting [15]), in test [2] (setting [16]) and in test [2] (Red No. 401 0.001 wt %) was “B” throughout. In addition, the entries for the “Sunlight exposure (80 MJ) Appearance” value in test [2] (Yellow No. 5 0.001 wt %), in test [2] (setting [17]) and in test [2] (Yellow No. 203 0.001 wt %) were “B”, “A” and “B”, respectively. For the same molecule, the “Sunlight exposure (80 MJ) Residual yield [%]” value in test [1] (setting [6]) is on record as 97.3%; in test [1] (setting [7]), 95.2%; in test [1] (setting [8]) it was 97.8%; in test [1] (setting [9]) it was 95.4%; in test [1] (drug Salicylic acid 0.1) it was 98.2%. Also, the “Sunlight exposure (80 MJ) ΔE” value in test [2] (Blue No. 1 0.0001 wt %) is 1.76; in test [2] (Green No. 3 0.0001 wt %), 0.75; in test [2] (setting [10]), 1.18; in test [2] (setting [11]), 1.11; in test [2] (Red No. 106 0.0001 wt %) it was 1.01; in test [2] (setting [12]), 1.26. The “Sunlight exposure (80 MJ) ΔE” value in test [2] (Red No. 213 0.0001 wt %) is listed as 1.34; in test [2] (setting [13]) it was 0.88; in test [2] (setting [14]), 1.05; in test [2] (Red No. 227 0.0001 wt %), 0.71; in test [2] (setting [15]), 0.82; in test [2] (setting [16]) it was 1.06. The “Sunlight exposure (80 MJ) ΔE” value in test [2] (Red No. 401 0.001 wt %) was determined as 1.18; in test [2] (Yellow No. 5 0.001 wt %), 0.82; in test [2] (setting [17]), 0.52; in test [2] (Yellow No. 203 0.001 wt %), 0.88. Further, the “Sunlight exposure (80 MJ) Smell evaluation” value in test [3] (Base perfume Fruity 0.03 wt %, photostabilizer 0.1 wt %) is recorded as “B”; in test [3] (Base perfume Muguet 0.03 wt %, photostabilizer 0.05 wt %) it was “B”; in test [3] (Base perfume Rose 0.03 wt %, photostabilizer 0.05 wt %), “B”; in test [3] (Base perfume Spicy 0.03 wt %, photostabilizer 0.2 wt %), “B”; in test [3] (Base perfume Woody 0.03 wt %, photostabilizer 0.1 wt %) it was “B”; in test [3] (Natural perfume Jasmine oil 0.03 wt %, photostabilizer 0.05 wt %) it was “B”. Moreover, the “Sunlight exposure (80 MJ) Smell evaluation” value is given as “B” in test [3] (Natural perfume Lavender oil 0.03 wt %, photostabilizer 0.1 wt %); “B” in test [3] (Natural perfume Neroli oil 0.03 wt %, photostabilizer 0.1 wt %); “B” in test [3] (Natural perfume Rose oil 0.03 wt %, photostabilizer 0.05 wt %); “B” in test [3] (Natural perfume Ylang ylang oil 0.03 wt %, photostabilizer 0.2 wt %); “B” in test [3] (Synthetic perfume Citral 0.03 wt %, photostabilizer 0.1 wt %); “B” in test [3] (Synthetic perfume Limonene 0.03 wt %, photostabilizer 0.05 wt %). For the same molecule, the “Sunlight exposure (80 MJ) Smell evaluation” value in test [3] (Synthetic perfume Linalool 0.03 wt %, photostabilizer 0.05 wt %) is “B”; in test [3] (Synthetic perfume Linalyl acetate 0.03 wt %, photostabilizer 0.1 wt %), “B”; in test [3] (Synthetic perfume Rose oxide 0.03 wt %, photostabilizer 0.2 wt %), “B”.
For `O=C([O-])CNCCN(CC(=O)[O-])CC(=O)[O-].[Na+].[Na+].[Na+]` [Trisodium ethylenediamine triacetate], in test [4], the “Sunlight exposure (80 MJ) Smell evaluation” value was “C”.
On to Sodium polyphosphate, for which the “Sunlight exposure (80 MJ) Appearance” value in test [5] (setting [18]), in test [5] (setting [19]), in test [5] (setting [20]) and in test [5] (setting [21]) was “C” in each case. The “Sunlight exposure (80 MJ) ΔE” value in test [5] (setting [18]) came out at 2.1; in test [5] (setting [19]), 2.92; in test [5] (setting [20]), 7.14; in test [5] (setting [21]), 1.75.
